The record followed here is patent US20040248275A1, “Engineered bacterial aggregates” (priority 2003, published 2004).

Holding throughout (format): cell-based
The test system of assay [1] is Aeromonas hydrophila. Kind of assay: QUAT susceptibility of single-species aggregates (survivors). The conditions noted are these: for No. of survivors after 20 minutes following treatment of 100 μm aggregate with 1 mM QUAT: 100 μm single species aggregate; for No. of survivors (%) at 20 min: 1 mM QUAT. Here is the method:
(§1) In another version of the present invention, one would test a biocide with the aggregates described above in the following manner: Volumes (1-10 mL) of customized aggregate suspensions, formed as described earlier, are held in suitable containers (microtitre plate well, mini-centrifuge tubes, pyrex glass test-tubes) to which are added appropriate concentrations of the test biocide (volume 5-25% of suspension volume). After a chosen contact times have elapsed (1-30 minutes) samples are removed to a neutralizer solution appropriate to the chosen biocide containing the antagonistic sugar (50 mM) for the chosen lectin (See Table 1). The aggregates disperse into single cell suspension that upon which simple plate count estimates of the viable surviving cell number may be conducted. Control experiments are conducted on disaggregated populations created by resuspending the customized aggregates in the antagonistic sugar (50 mM) prior to the addition of biocide.
(§2) Single species (Pseudomonas sp. 2881, Aeromonas hydrophila and Corynebacterium aquaticum) aggregates of 10, 50 and 100 μm in size were constructed and treated with different concentrations of three simple quaternary ammonium compounds (n-alkyl dimethyl benzyl ammonium chloride where n=12, 14 or 16).

Assay [2] deals with Corynebacterium aquaticum. The description is as above. The conditions noted are these: for No. of survivors after 20 minutes following treatment of 100 μm aggregate with 1 mM QUAT: 100 μm single species aggregate; for No. of survivors (%) at 20 min: 1 mM QUAT. Here is the method: as §1, §2
The test system of assay [3] is Pseudomonas sp. 2881. Described as above. The conditions noted are these: for No. of survivors after 20 minutes following treatment of 100 μm aggregate with 1 mM QUAT: 100 μm single species aggregate; for No. of survivors (%) at 20 min: 1 mM QUAT. Here is the method:
as §1, §2

Assay [4] deals with A. hydrophila. The experiment in a line: QUAT susceptibility in structured multi-species aggregates (survivors). The conditions noted are these: 1 mM QUAT. Here is the method: (§3) In another method of the present invention, one would form a multilamellar spherical aggregate in the following manner: In order to construct lamellar aggregates, aggregates of defined size should be prepared for the ‘core’ under XS (see i or ii above). Cores, either homogeneous or heterogeneous, are harvested by centrifugation (3000 g 10 minutes) and resuspended in the original volume of phosphate buffered saline (pH 7.1). Mix equal parts of the harvested core aggregates and a washed suspension of the ‘coating organism’ (1×10^7-5×10^8 cells/mL).
as §1
(§4) Binary lamellar aggregates were constructed for all combinations of the three test species. Core aggregate size was 50 microns diameter. Cores were coated with an equal number of the partner species. Each test species served as both core-aggregate and shell in these experiments. […] When the cells were aggregated prior to exposure to QUATs, then it became apparent that there was not only a protection afforded by aggregation but that the relative location of one species to the other affected the inactivation. Selected data is presented that compares inactivation of unordered (homogeneous) aggregates of two different species with ones where each of the partner organisms serves as either the core or shell to the other.

The subject of assay [5] is C. aquaticum. The assay is described as above. The conditions noted are these: 1 mM QUAT. Here is the method: as §3, §1, §4
Assay [6] deals with Pseudomonas sp. 2881. The description is as above. The conditions noted are these: 1 mM QUAT. Here is the method:
as §3, §1, §4

The mark [7] stands for this setting: single-species aggregate Approx. 10 μm.
Where [8] appears, read: single-species aggregate Approx. 50 μm.
Setting [9] is: single-species aggregate Approx. 100 μm.
Setting [10] is: 100 μm A. hydrophila - C. aquaticum aggregate, Unordered mixture.
Setting [11] is: 100 μm Pseudomonas sp. 2881 - A. hydrophila aggregate, Unordered mixture.
[12] abbreviates: 100 μm aggregate, A. hydrophila shell, C. aquaticum core.
Where [13] appears, read: 100 μm aggregate, A. hydrophila shell, Pseudomonas sp. 2881 core.
Where [14] appears, read: 100 μm aggregate, C. aquaticum shell, A. hydrophila core.
The mark [15] stands for this setting: 100 μm aggregate, Pseudomonas sp. 2881 shell, A. hydrophila core.
Where [16] appears, read: 100 μm Pseudomonas sp. 2881 - C. aquaticum aggregate, Unordered mixture.
[17] abbreviates: 100 μm aggregate, C. aquaticum shell, Pseudomonas sp. 2881 core.
[18] abbreviates: 100 μm aggregate, Pseudomonas sp. 2881 shell, C. aquaticum core.

A value given as a limit tells only on which side of the number the result lay.

Consider “n-alkyl dimethyl benzyl ammonium chloride [C16 QUAT]”, for which the “No. of survivors after 20 minutes following treatment of 100 μm aggregate with 1 mM QUAT” value (from here on “No. of survivors … with 1 mM QUAT”) in assay [1] is listed as 0.594; in assay [2], 0.266; in assay [3], 0.724.
For the substance “n-alkyl dimethyl benzyl ammonium chloride [C14 QUAT]”, the “No. of survivors (%) at 20 min” value in assay [1] (No aggregate (free cells)) is listed as less than 0.00001%; in assay [1] (setting [7]) it was 0.0041%; in assay [1] (setting [8]), 0.0282%; in assay [1] (setting [9]), 0.4197%; in assay [2] (No aggregate (free cells)), less than 0.00001%; in assay [2] (setting [7]), 0.0002%. The “No. of survivors (%) at 20 min” value in assay [2] (setting [8]) is listed as 0.0027%; in assay [2] (setting [9]), 0.0829%; in assay [3] (No aggregate (free cells)), 0.001%; in assay [3] (setting [7]), 0.021%; in assay [3] (setting [8]), 0.0598%; in assay [3] (setting [9]), 0.5942%. The “No. of survivors … with 1 mM QUAT” value in assay [1] came to 0.420; in assay [2] it was 0.083; in assay [3], 0.594. Also, the “% No. survivors after 20 minutes” value in assay [4] (setting [10]) is 0.172%; in assay [4] (setting [11]), 0.112%; in assay [4] (setting [12]), 0.131%; in assay [4] (setting [13]), 0.0065%; in assay [4] (setting [14]) it was 0.365%; in assay [4] (setting [15]) it was 0.176%. For the same substance, the “% No. survivors after 20 minutes” value in assay [5] (setting [10]) is given as 0.0364%; in assay [5] (setting [16]), 0.0412%; in assay [5] (setting [12]), 0.0457%; in assay [5] (setting [14]) it was more than 0.001%; in assay [5] (setting [17]), more than 0.001%; in assay [5] (setting [18]), 0.0698%. Further, the “% No. survivors after 20 minutes” value is 0.241% in assay [6] (setting [11]); 0.264% in assay [6] (setting [16]); 0.319% in assay [6] (setting [13]); 0.425% in assay [6] (setting [17]); 0.147% in assay [6] (setting [15]); 0.219% in assay [6] (setting [18]).
For the substance “n-alkyl dimethyl benzyl ammonium chloride [C12 QUAT]”, the figures for the “No. of survivors … with 1 mM QUAT” value in assay [1], in assay [2] and in assay [3] were 0.635, 0.240 and 0.711, respectively.
